In article PMC8403366, “Functional significance of gain-of-function H19 lncRNA in skeletal muscle differentiation and anti-obesity effects” (Genome Medicine, 2021):

Legend:
C57BL/6 J mice [1] = assay: Oxymax/CLAMS metabolic cage study; assay type: in vivo, mouse; conditions: n = 4
Procedure: (§1) Whole-body composition parameters were measured in male and female mice fed with either chow or HFD by Faxitron Specimen Radiography System (Faxitron X-Ray Corp.) to precisely measure total body fat and lean mass. Mice were housed in the Oxymax/CLAMS metabolic cage system (Columbus Instruments) for 4 days with ad libitum access to food and water. Volume of oxygen uptake (VO2) and exhaled carbon dioxide (VCO2), respiratory exchange ratio (RER), and activity were measured using the Oxymax system. RER is determined by dividing VCO2 produced by VO2 consumed.

C57BL/6 J mice on a HFD = assay: HFD-induced obesity model: body, muscle and fat weights, body composition; assay type: in vivo, mouse; conditions: HFD-fed male mice; for body weight: n = 10
Procedure: To determine the effects of H19-Rgof with a skeletal muscle enrichment peptide agrin (AGR-H19-Rgof) on WT C57BL/6 J or Lep^Ob/Ob mice, AGR-tagged oligonucleotides were used. The synthesis and sequence information of AGR-tagged RNA oligonucleotides are described in “Synthesis of H19-Rgof mimics, AGR-H19-Rgof mimics, and Pharmacokinetics (PK) studies.” AGR-Scr (conjugated to scramble oligonucleotides), H19-Rgof, or AGR-H19-Rgof mimics were injected at a dose of 1 mg/kg intraperitoneally into 3-week-old male and female mice. For AGR-H19-Rgof treatment in HFD (Cat # D12492, Research Diets, Inc.)-fed mice, male C57BL/6 J mice were fed with a HFD starting at 6 weeks of age. The AGR-H19-Rgof and AGR-Scr mimics were injected at a dose of 0.5 or 1 mg/kg intraperitoneally every other day starting 2 weeks after the initiation of HFD feeding. Body weight was measured weekly. The general health condition, grooming, and behavior of all animals were monitored daily, and injection sites were checked for signs of redness or edema.
Unless otherwise indicated, mice were fasted for 4–6 h, anesthetized with isoflurane, and sacrificed by heart puncture. Tissues were dissected, weighed, and either dipped in liquid nitrogen or fixed for immunohistochemistry analysis. Individual muscle was dissected on one side of the body and weighed. Adipose tissues including white adipose tissue (WAT), visceral adipose tissue (VAT), and brown adipose tissue (BAT) were collected and weighed.
as §1

C57BL/6 J mice [2] = assay: Blood analyses (serum lipids, hormones, ALT, AST)
Procedure: Whole blood was collected by tail bleeding from un-anesthetized mice or cardiac puncture from mice under deep terminal anesthesia. Mice have been fasted for 4–6 h before blood collection. Total cholesterol (TC) and triglycerides (TG) were determined by enzymatic assays using commercial kits (BioAssay Systems). Alanine aminotransferase (ALT) and aspartate aminotransferase (AST) levels were measured using Alanine Transaminase Colorimetric Activity Assay Kit (700260, Cayman Chemical) and EnzyChrom Aspartate Transaminase Assay Kit (EASTR-100, BioAssay Systems). Serum levels of leptin (ELM-Leptin-1, RayBiotech), IGF1 (RAB0229, Sigma), IGF2 (RAB0231, Sigma), insulin (90080, Crystal Chem), and testosterone (KGE010, R&D) were measured by ELISA assay according to the manufacturer’s instructions.

iPSC-SkMC = assay: Utrophin immunofluorescence in iPSC-SkMC; assay type: cell-based, human; conditions: vs AGR-Scr, n = 5
Procedure: For myogenic differentiation, iPSCs were differentiated into skeletal muscle cells using Skeletal Muscle Differentiation Kit (Genea Biocells) according to the manufacturer’s protocol. Briefly, iPSCs were plated onto a collagen I coated plate and maintained for 6–10 days in Skeletal Muscle Induction Medium (Genea Biocells) until confluent. Dissociated myogenic precursors were then plated on a collagen I coated plate and cultured in Skeletal Myoblast Medium (Genea Biocells) for 6–8 days. When confluent, cells were maintained in Myotube Medium or Myotube Fusion Medium (Genea Biocells). Cryopreserved stocks of myoblasts Genea002 were obtained from Genea Biocells. […]
Skeletal muscles were collected and fixed in 10% Neutral Buffered Formalin at 4 °C for 1 h, followed by 10% sucrose/PBS overnight and then 18% sucrose/PBS overnight at 4 °C before being frozen embedded and sectioned. […] Muscle cross-sectional area and fiber numbers were quantified by ImageJ. […] The quantification of IF staining density was performed by Image-pro plus 6.0 (Media Cybernetics) and calculated based on the average staining intensity and the percentage of positively stained cells. To quantify myotube fusion, fusion index was calculated by dividing the number of nuclei in MHC-positive myotubes with ≥ 3 nuclei by the total number of nuclei analyzed in a field.

C57BL/6 J mice [3] = assay: Tissue distribution / pharmacokinetics of biotinylated mimics; assay type: in vivo, mouse; conditions: 10 mg/kg i.p.; streptavidin immunohistochemistry, 24 hours post administration; n = 5
Procedure: The H19-Rgof mimics and AGR-H19-Rgof mimics were synthesized by Bio-synthesis Inc. The linker that connected the peptide and RNA oligonucleotides was succinimidyl 4-(N-maleimidomethyl) cyclohexane-1-carboxylate (SMCC). RNA mimics sequences are listed in the Additional file 1: Table S1. To characterize the pharmacokinetics of H19-Rgof and AGR-H19-Rgof mimics, the biotinylated H19-Rgof and AGR-H19-Rgof mimics (10 mg/kg) were intraperitoneally injected into C57BL/6 J mice. The liver, kidneys, lungs, heart, and skeletal muscles of the animals were collected 3, 12, 24, 48, or 72 h post-injection (n = 5 animal per time point). Tissues were subjected to immunohistochemistry using streptavidin alkaline phosphatase conjugates and small RNA isolation in accordance with the manufacturer’s instructions using miRCURY™ RNA Isolation Kits (Qiagen). Immunostained tissue slides were obtained with a Vectra Polaris Multispectral Imaging scanner (PerkinElmer). The quantification of immunohistochemistry staining density was performed by Image-pro plus 6.0 (Media Cybernetics) and calculated based on the average staining intensity and the percentage of positively stained cells. Pharmacokinetic parameters were determined by nonlinear regression analysis.

N-terminal-ELTNEIPAELTNEIPA-Linker-5'-[2’-F-C][2’-F-U][2’-F-C][2’-F-U][2’-F-U][2’-F-U][2’-F-A][2’-F-U][2’-F-U][2’-F-U][2’-F-C][2’-F-U][2’-F-G][2’-F-A][2’-F-G][2’-F-C][2’-F-U][2’-F-U][2’-F-U][2’-F-C][2’-F-C][2’-F-U][2’-F-A][2’-F-U][2’-F-C][2’-F-U][2’-F-U][2’-F-U][2’-F-C][2’-F-C]-3' [AGR-H19-Rgof]
overall food intake (C57BL/6 J mice [1]; HFD-fed male mice, vs AGR-Scr): similar
energy expenditure (C57BL/6 J mice [1]; HFD-fed mice, CLAMS): elevated
total activity (C57BL/6 J mice [1]; HFD-fed mice, CLAMS, vs AGR-Scr): similar
activity per day/night (C57BL/6 J mice [1]; WT male mice on chow, CLAMS, vs control): not significantly altered
total food intake (C57BL/6 J mice [1]; WT male mice on chow, vs control): not significantly altered
respiratory exchange ratio (RER) (C57BL/6 J mice [1]; WT mice on chow, CLAMS, vs AGR-Scr): elevated
body weight (C57BL/6 J mice on a HFD; 0.5 mg/kg i.p. every other day): significantly reduced
body weight (C57BL/6 J mice on a HFD; 1 mg/kg i.p. every other day): significantly reduced
fat percentage (body composition) (C57BL/6 J mice on a HFD; vs AGR-Scr, n = 5): reduced
fat weight (body composition) (C57BL/6 J mice on a HFD; vs AGR-Scr, n = 5): reduced
lean weight (body composition) (C57BL/6 J mice on a HFD; vs AGR-Scr, n = 5): increased
fat mass (C57BL/6 J mice on a HFD; vs AGR-Scr, n = 10, 9): reduced
skeletal muscle mass (C57BL/6 J mice on a HFD; vs AGR-Scr, n = 10, 9): increased
serum triglyceride concentrations (C57BL/6 J mice [2]; HFD-fed male mice, n = 10, 7): reduced
IGF1 concentration (C57BL/6 J mice [2]; HFD-fed male mice, serum): unaltered
IGF2 concentration (C57BL/6 J mice [2]; HFD-fed male mice, serum): unaltered
total cholesterol (C57BL/6 J mice [2]; HFD-fed mice, n = 10, 9): reduced
leptin (C57BL/6 J mice [2]; HFD-fed mice, serum, n = 7, 7): reduced
total cholesterol (C57BL/6 J mice [2]; WT mice on chow, serum, vs AGR-Scr, n = 5): reduced
serum triglyceride concentrations (C57BL/6 J mice [2]; WT mice on chow, vs AGR-Scr, n = 7): reduced
utrophin protein status (iPSC-SkMC): elevated
accumulation in liver, kidneys and lungs (C57BL/6 J mice [3]): minimal accumulation
biotin-labeled mimic detected in skeletal muscle (C57BL/6 J mice [3]): substantial proportion
skeletal muscle distribution compared to unlabeled H19-Rgof (C57BL/6 J mice [3]): significantly enhanced
